Like-named read-outs stand apart in the source and are kept apart here.
Assays:
P. falciparum = details: cited from earlier work
[1] = tested on: P. falciparum 3D7 parasites; test: P. falciparum growth inhibition assay, 1-cycle (72 h treatment), SYBR DNA staining (library screen at 2 μg/mL and dose-response); type: cell-based, Plasmodium falciparum; details: for activity in the screen against P. falciparum: 2 μg/mL, active = ≥80 % growth inhibition
[2] = tested on: T. gondii RH strain (RH-Tub-eYFP) tachyzoites; test: microbe, parasite or virus in culture; type: cell-based, Toxoplasma gondii; details: 72 h, 72 h; for percent parasite growth at 2 µg/mL: Toxoplasma gondii
[3] = tested on: P. falciparum 3D7 parasites; test: P. falciparum growth inhibition assay, 2-cycle (120 h treatment), delayed-death screen and dose-response; type: cell-based, Plasmodium falciparum
[4] = 48–72 h, ref Wilson et al., 2013, read-out: IC50 at 48–72 h
[5] = Plasmodium falciparum, 3D7; P. falciparum, 2 μg/mL, 72 h; read-out: 1) Growth (%) at 72 h
[6] = Plasmodium falciparum, 3D7, library screen at 2 μg/mL, 72 h, % growth, replicate 1, read-out: Pf_72h_%Growth_Rep1
[7] = Plasmodium falciparum, 3D7, library screen at 2 μg/mL, 72 h, % growth, replicate 2, read-out: Pf_72h_%Growth_Rep2
[8] = library screen at 2 μg/mL, % growth, replicate 1, read-out: Tg_72h_%Growth_Rep1
[9] = library screen at 2 μg/mL, % growth, replicate 2, read-out: Tg_72h_%Growth_Rep2
[10] = Plasmodium falciparum, 3D7; P. falciparum, 2 μg/mL, 120 h; read-out: 2) Growth (%) at 120 h
[11] = Plasmodium falciparum, 3D7, library screen at 2 μg/mL, 120 h, % growth, replicate 1, read-out: Pf_120h_%Growth_Rep1
[12] = Plasmodium falciparum, 3D7, library screen at 2 μg/mL, 120 h, % growth, replicate 2, read-out: Pf_120h_%Growth_Rep2
[13] = library screen at 2 μg/mL, 72 h, % growth, replicate 1
[14] = library screen at 2 μg/mL, 72 h, % growth, replicate 2
[15] = library screen at 2 μg/mL, % growth, replicate 1
[16] = library screen at 2 μg/mL, % growth, replicate 2
[17] = library screen at 2 μg/mL, 120 h, % growth, replicate 1
[18] = library screen at 2 μg/mL, 120 h, % growth, replicate 2
[19] = P. falciparum, 72 h, parasite screen 2 μg/mL, % growth, replicate 1
[20] = P. falciparum, 72 h, parasite screen 2 μg/mL, % growth, replicate 2
[21] = T. gondii, parasite screen 2 μg/mL, % growth, replicate 1
[22] = T. gondii, parasite screen 2 μg/mL, % growth, replicate 2
[23] = P. falciparum, 120 h, parasite screen 2 μg/mL, % growth, replicate 1
[24] = P. falciparum, 120 h, parasite screen 2 μg/mL, % growth, replicate 2
[25] = P. falciparum, 72 h, screen at 2 μg/mL, replicate 1
[26] = P. falciparum, 72 h, screen at 2 μg/mL, replicate 2
[27] = T. gondii, screen at 2 μg/mL, replicate 1
[28] = T. gondii, screen at 2 μg/mL, replicate 2
[29] = P. falciparum, 120 h, screen at 2 μg/mL, replicate 1
[30] = P. falciparum, 120 h, screen at 2 μg/mL, replicate 2

CC[C@H]1OC(=O)[C@H](C)[C@@H](O[C@H]2C[C@@](C)(OC)[C@@H](O)[C@H](C)O2)[C@H](C)[C@@H](O[C@@H]2O[C@H](C)C[C@H](N(C)C)[C@H]2O)[C@](C)(O)C[C@@H](C)CN(C)[C@H](C)[C@@H](O)[C@]1(C)O [Azithromycin, reference compound]
IC50 (P. falciparum; [4]): ≥ 5000 nM
IC50 at more than 96 h (P. falciparum; ref Wilson et al., 2013): low nanomolar range
activity at 2 µg/mL [1, 5]: 56.2%
activity at 2 µg/mL [1, 6]: 59.3%
activity at 2 µg/mL [1, 7]: 53.1%
percent parasite growth at 2 µg/mL [2, 8]: 41.8%
percent parasite growth at 2 µg/mL [2, 9]: 36%
3) Fold change (72 h/120 h) ([3]; P. falciparum, growth at 72 h / growth at 120 h, 2 μg/mL): 6.4
activity at 2 µg/mL [3, 10]: 8.77%
activity at 2 µg/mL [3, 11]: 17.2%
activity at 2 µg/mL [3, 12]: 0.35%

C[C@H]1c2cccc(O)c2C(=O)C2=C(O)[C@]3(O)C(=O)C(C(N)=O)=C(O)[C@@H](N(C)C)[C@@H]3[C@@H](O)[C@@H]21 [Doxycycline, reference compound]
IC50 (P. falciparum; [4]): ≥ 5000 nM
IC50 at more than 96 h (P. falciparum; ref Wilson et al., 2013): low nanomolar range
activity at 2 µg/mL [1, 5]: 48.6%
activity at 2 µg/mL [1, 6]: 55.3%
activity at 2 µg/mL [1, 7]: 41.9%
percent parasite growth at 2 µg/mL [2, 8]: 41%
percent parasite growth at 2 µg/mL [2, 9]: 47.5%
3) Fold change (72 h/120 h) [3]: 6.3
activity at 2 µg/mL [3, 10]: 7.68%
activity at 2 µg/mL [3, 11]: 8.86%
activity at 2 µg/mL [3, 12]: 6.5%

COCC(=O)N[C@@H](C(=O)N1NCCC[C@H]1C(=O)N[C@@H](Cc1ccccc1)[C@@H](O)[C@H](C)C(=O)N[C@H]1CCN(C(N)=O)C1=O)[C@H](O)C(C)C [Padanamide A]
IC50 (P. falciparum; another study, ref Cheng et al., 2015, read-out: IC50 in P. falciparum): ~200 nM
activity in the screen against P. falciparum ([1]; 72 h): active against P. falciparum

CC[C@H]1OC(=O)[C@H](C)[C@@H](O[C@H]2C[C@@](C)(OC)[C@@H](O)[C@H](C)O2)[C@H](C)[C@@H](O[C@@H]2O[C@H](C)C[C@H](N(C)C)[C@H]2O)[C@](C)(O)C[C@@H](C)/C(=N\OCOCCOC)[C@H](C)[C@@H](O)[C@]1(C)O [Roxithromycin, reference compound]
IC50 (P. falciparum; 48 h, ref Min et al., 2007, read-out: IC50 at 48 h): ~4000 nM
IC50 (P. falciparum; increased treatment duration, ref Min et al., 2007, read-out: IC50 with increased treatment duration): 1000 to 2000 nM
activity at 2 µg/mL [1, 5]: 30.9%
activity at 2 µg/mL ([1]; Plasmodium falciparum, 3D7, P. falciparum, 72 h, parasite screen 2 μg/mL, % growth, replicate 1, read-out: Pf_72h_%Growth_Rep1): 34.6%
activity at 2 µg/mL ([1]; Plasmodium falciparum, 3D7, P. falciparum, 72 h, parasite screen 2 μg/mL, % growth, replicate 2, read-out: Pf_72h_%Growth_Rep2): 27.2%
percent parasite growth at 2 µg/mL ([2]; T. gondii, parasite screen 2 μg/mL, % growth, replicate 1, read-out: Tg_72h_%Growth_Rep1): 33.7%
percent parasite growth at 2 µg/mL ([2]; T. gondii, parasite screen 2 μg/mL, % growth, replicate 2, read-out: Tg_72h_%Growth_Rep2): 33.3%
3) Fold change (72 h/120 h) [3]: 3.6
activity at 2 µg/mL [3, 10]: 8.49%
activity at 2 µg/mL ([3]; Plasmodium falciparum, 3D7, P. falciparum, 120 h, parasite screen 2 μg/mL, % growth, replicate 1, read-out: Pf_120h_%Growth_Rep1): 18.3%
activity at 2 µg/mL ([3]; Plasmodium falciparum, 3D7, P. falciparum, 120 h, parasite screen 2 μg/mL, % growth, replicate 2, read-out: Pf_120h_%Growth_Rep2): -1.36%

CCC[C@@H]1C[C@@H](C(=O)N[C@@H]([C@H]2O[C@H](SC)[C@H](O)[C@@H](O)[C@H]2O)[C@H](C)Cl)N(C)C1 [clindamycin]
IC50 (P. falciparum; [4]): ≥ 5000 nM
IC50 at more than 96 h (P. falciparum; ref Wilson et al., 2013): low nanomolar range

C=C(NC(=O)C(=C)NC(=O)c1csc(C2=N[C@@H]3c4csc(n4)[C@H]4NC(=O)c5csc(n5)[C@H]([C@](C)(O)[C@@H](C)O)NC(=O)[C@H]5CSC(=N5)/C(=C/C)NC(=O)[C@H]([C@@H](C)O)NC(=O)c5csc(n5)[C@]3(CC2)NC(=O)[C@H](C)NC(=O)C(=C)NC(=O)[C@H](C)NC(=O)[C@H]([C@@H](C)CC)N[C@@H]2C=Cc3c([C@H](C)O)cc(nc3[C@H]2O)C(=O)O[C@@H]4C)n1)C(N)=O [thiostrepton, reference compound]
IC50 (P. falciparum; ref Aminake et al., 2011, Schoof et al., 2010, read-out: IC50 in Plasmodium): ~10000 nM
activity at 2 µg/mL ([1]; Plasmodium falciparum, 3D7, P. falciparum, 72 h, screen at 2 μg/mL, replicate 1, read-out: Pf_72h_%Growth_Rep1): 56.7%
activity at 2 µg/mL ([1]; Plasmodium falciparum, 3D7, P. falciparum, 72 h, screen at 2 μg/mL, replicate 2, read-out: Pf_72h_%Growth_Rep2): 65.2%
percent parasite growth at 2 µg/mL ([2]; T. gondii, screen at 2 μg/mL, replicate 1, read-out: Tg_72h_%Growth_Rep1): 86.7%
percent parasite growth at 2 µg/mL ([2]; T. gondii, screen at 2 μg/mL, replicate 2, read-out: Tg_72h_%Growth_Rep2): 93.6%
activity at 2 µg/mL ([3]; Plasmodium falciparum, 3D7, P. falciparum, 120 h, screen at 2 μg/mL, replicate 1, read-out: Pf_120h_%Growth_Rep1): 60.6%
activity at 2 µg/mL ([3]; Plasmodium falciparum, 3D7, P. falciparum, 120 h, screen at 2 μg/mL, replicate 2, read-out: Pf_120h_%Growth_Rep2): 35.5%

Enniatin A1
Pf_72h_%Growth_Rep1 [1, 13]: 5.31%
Pf_72h_%Growth_Rep2 [1, 14]: 1.97%
Tg_72h_%Growth_Rep1 [2, 15]: -0.69%
Tg_72h_%Growth_Rep2 [2, 16]: 13.13%
Pf_120h_%Growth_Rep1 [3, 17]: 8.66%
Pf_120h_%Growth_Rep2 [3, 18]: 18.71%

Eprinomectin
Pf_72h_%Growth_Rep1 [1, 13]: 61.67%
Pf_72h_%Growth_Rep2 [1, 14]: 29.66%
Tg_72h_%Growth_Rep1 [2, 15]: 130.43%
Tg_72h_%Growth_Rep2 [2, 16]: 107.67%
Pf_120h_%Growth_Rep1 [3, 17]: 33.01%
Pf_120h_%Growth_Rep2 [3, 18]: 14.57%

Micrococcin P1
IC50 (P. falciparum; within 48 h, ref Rogers et al., 1998, read-out: IC50 in P. falciparum within 48 h): 35 nM
IC50 ([1]; 3D7, 72 h treatment, mean ± S.D., n ≥ 3, read-out: IC50 (μM), P. falciparum): 0.02 ± 0.004 µM
IC50 ([1]; 72 h treatment, read-out: IC50, P. falciparum): < 0.2 µM

Pladienolide B
activity in the screen against P. falciparum ([1]; 72 h): active against T. gondii but not P. falciparum
activity in the screen against T. gondii ([2]; 2 μg/mL, active = ≥80 % growth inhibition): active against T. gondii but not P. falciparum
IC50 ([2]; read-out: IC50, T. gondii): 6.7 ± 4.4 nM
selectivity index (HFF cells; fibroblasts over T. gondii, for cryptopleurine the parasite is not stated): 7
IC50 (HFF cells; read-out: IC50, cytotoxicity against human fibroblasts, HFF, 72 h): 47 nM

Pyripyropene A
Pf_72h_%Growth_Rep1 [1, 19]: 79.94%
Pf_72h_%Growth_Rep2 [1, 20]: 110.00%
Tg_72h_%Growth_Rep1 [2, 21]: 125.43%
Tg_72h_%Growth_Rep2 [2, 22]: 86.00%
Pf_120h_%Growth_Rep1 [3, 23]: 67.48%
Pf_120h_%Growth_Rep2 [3, 24]: 119.28%

Spirolaxine
Pf_72h_%Growth_Rep1 [1, 19]: 54.30%
Pf_72h_%Growth_Rep2 [1, 20]: 41.64%
Tg_72h_%Growth_Rep1 [2, 21]: 20.75%
Tg_72h_%Growth_Rep2 [2, 22]: 22.73%
Pf_120h_%Growth_Rep1 [3, 23]: 32.74%
Pf_120h_%Growth_Rep2 [3, 24]: 18.31%

Telomycin
Pf_72h_%Growth_Rep1 [1, 25]: 87.11%
Pf_72h_%Growth_Rep2 [1, 26]: 125.88%
Tg_72h_%Growth_Rep1 [2, 27]: 151.31%
Tg_72h_%Growth_Rep2 [2, 28]: 89.83%
Pf_120h_%Growth_Rep1 [3, 29]: 103.58%
Pf_120h_%Growth_Rep2 [3, 30]: 79.40%

Viridicatumtoxin
Pf_72h_%Growth_Rep1 [1, 25]: 2.34%
Pf_72h_%Growth_Rep2 [1, 26]: 2.82%
Tg_72h_%Growth_Rep1 [2, 27]: 122.40%
Tg_72h_%Growth_Rep2 [2, 28]: 65.71%
Pf_120h_%Growth_Rep1 [3, 29]: 6.51%
Pf_120h_%Growth_Rep2 [3, 30]: 13.13%

spiramycin
IC50 (P. falciparum; [4]): ≥ 5000 nM
IC50 at more than 96 h (P. falciparum; ref Wilson et al., 2013): low nanomolar range

Source: paper PMC12396409, “Screening and hit evaluation of a microbial metabolite library against the pathogenic Plasmodium falciparum and Toxoplasma gondii parasites” (International Journal for Parasitology: Drugs and Drug …, 2025)
